Three compounds from ChEMBL document CHEMBL1201862, “PubChem BioAssay data set” (2004) can be followed below.

Molecules are shown by their SMILES. Activity calls are given as the source filed them. For most assays here, no stated cut-off is given here; in the data, actives have a measured IC50 and inactives only a lower limit.

Holding throughout (assay type): functional
Test [1] has as its target 26S proteasome non-ATPase regulatory subunit 14 (Homo sapiens, UniProt O00487). Description: inhibition of proteasome subunit RPN11 – biochemical, fluorescence polarization, uHTS hits, confirmation (AID 602368).
Test [2] deals with 72 kDa type IV collagenase (Homo sapiens, UniProt P08253). Description: Dose Response validation of uHTS RPN11 inhibitor hits using a MMP-2 Fluorescence assay.
Chain of 72 kDa type IV collagenase (P08253 whole entry): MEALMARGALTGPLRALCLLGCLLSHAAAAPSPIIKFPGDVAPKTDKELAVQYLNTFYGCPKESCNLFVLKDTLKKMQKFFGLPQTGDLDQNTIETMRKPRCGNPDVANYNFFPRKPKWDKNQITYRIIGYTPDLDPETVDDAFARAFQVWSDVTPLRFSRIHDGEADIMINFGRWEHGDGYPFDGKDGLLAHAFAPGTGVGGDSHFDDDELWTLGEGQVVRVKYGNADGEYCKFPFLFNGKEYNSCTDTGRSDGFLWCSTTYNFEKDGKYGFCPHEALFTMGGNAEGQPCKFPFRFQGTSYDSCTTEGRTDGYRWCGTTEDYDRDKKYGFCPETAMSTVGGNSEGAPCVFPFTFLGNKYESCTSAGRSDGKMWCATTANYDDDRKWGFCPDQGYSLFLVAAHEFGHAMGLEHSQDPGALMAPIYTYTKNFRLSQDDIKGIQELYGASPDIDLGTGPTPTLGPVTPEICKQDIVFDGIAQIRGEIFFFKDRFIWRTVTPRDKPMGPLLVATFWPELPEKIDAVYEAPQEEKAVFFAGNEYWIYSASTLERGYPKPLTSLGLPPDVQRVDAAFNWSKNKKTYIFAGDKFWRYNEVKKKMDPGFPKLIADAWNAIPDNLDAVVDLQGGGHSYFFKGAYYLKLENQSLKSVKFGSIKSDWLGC
The target of a further test is Prothrombin (Bos taurus, UniProt P00735). Description: thrombin protease inhibitors – biochemical, fluorescence polarization, uHTS hits, dose response (AID 602369). (In general: In fluorescence polarisation assays a small probe gives low polarisation when free and higher when bound to something large.)
A further test concerns the target T1, Caspase-3 (Homo sapiens, UniProt P42574).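 Further: Dose-response selectivity test against caspase-3 for candidate inhibitors of sentrin-specific proteases (SENPs).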
T1 sequence (P42574 whole entry): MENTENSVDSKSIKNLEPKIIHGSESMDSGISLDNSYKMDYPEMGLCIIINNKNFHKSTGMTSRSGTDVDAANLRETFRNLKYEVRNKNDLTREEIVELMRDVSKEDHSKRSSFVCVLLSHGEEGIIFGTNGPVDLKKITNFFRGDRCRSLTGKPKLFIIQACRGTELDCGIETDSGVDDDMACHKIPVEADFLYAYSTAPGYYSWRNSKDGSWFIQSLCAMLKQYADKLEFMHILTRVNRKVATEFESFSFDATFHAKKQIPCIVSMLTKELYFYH

Test [3] has as its target T2, Sentrin-specific protease 7 (Homo sapiens, UniProt Q9BQF6).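 Further: Luminescence-based dose-response confirmation of ultra-high-throughput screening hits, measuring inhibition of SENP7.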
T2 sequence (Q9BQF6 whole entry): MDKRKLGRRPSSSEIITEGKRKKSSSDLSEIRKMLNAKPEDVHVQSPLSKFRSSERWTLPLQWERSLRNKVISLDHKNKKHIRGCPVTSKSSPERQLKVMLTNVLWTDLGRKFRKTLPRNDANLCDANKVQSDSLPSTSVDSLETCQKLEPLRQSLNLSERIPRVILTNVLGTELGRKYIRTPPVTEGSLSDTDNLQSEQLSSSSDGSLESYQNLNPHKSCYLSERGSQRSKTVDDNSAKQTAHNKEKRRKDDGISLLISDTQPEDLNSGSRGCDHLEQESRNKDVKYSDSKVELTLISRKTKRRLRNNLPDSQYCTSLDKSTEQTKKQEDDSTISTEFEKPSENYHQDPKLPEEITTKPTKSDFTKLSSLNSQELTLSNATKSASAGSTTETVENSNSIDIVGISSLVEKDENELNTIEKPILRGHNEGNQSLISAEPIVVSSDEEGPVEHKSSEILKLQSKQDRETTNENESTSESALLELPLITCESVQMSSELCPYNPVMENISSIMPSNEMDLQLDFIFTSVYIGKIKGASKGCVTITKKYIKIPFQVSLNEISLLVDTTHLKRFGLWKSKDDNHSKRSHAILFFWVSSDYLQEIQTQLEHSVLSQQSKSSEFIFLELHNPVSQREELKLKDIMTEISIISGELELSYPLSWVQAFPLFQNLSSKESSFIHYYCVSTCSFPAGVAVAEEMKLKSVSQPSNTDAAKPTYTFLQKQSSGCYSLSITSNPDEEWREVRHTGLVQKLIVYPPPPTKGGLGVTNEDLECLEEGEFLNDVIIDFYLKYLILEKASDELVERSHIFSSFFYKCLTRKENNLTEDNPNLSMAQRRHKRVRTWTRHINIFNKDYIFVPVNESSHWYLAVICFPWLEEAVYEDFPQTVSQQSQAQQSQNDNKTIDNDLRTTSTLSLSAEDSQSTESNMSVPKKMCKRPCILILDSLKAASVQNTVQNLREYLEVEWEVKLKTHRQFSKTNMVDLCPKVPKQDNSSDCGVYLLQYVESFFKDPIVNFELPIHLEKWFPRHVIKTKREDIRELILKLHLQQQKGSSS

The target in test [4] is T3, Sentrin-specific protease 6 (Homo sapiens, UniProt Q9GZR1).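 Further: Luminescence-based dose-response confirmatory assay of SENP6 inhibition, following up an ultra-high-throughput screen.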
T3 sequence (Q9GZR1 whole entry): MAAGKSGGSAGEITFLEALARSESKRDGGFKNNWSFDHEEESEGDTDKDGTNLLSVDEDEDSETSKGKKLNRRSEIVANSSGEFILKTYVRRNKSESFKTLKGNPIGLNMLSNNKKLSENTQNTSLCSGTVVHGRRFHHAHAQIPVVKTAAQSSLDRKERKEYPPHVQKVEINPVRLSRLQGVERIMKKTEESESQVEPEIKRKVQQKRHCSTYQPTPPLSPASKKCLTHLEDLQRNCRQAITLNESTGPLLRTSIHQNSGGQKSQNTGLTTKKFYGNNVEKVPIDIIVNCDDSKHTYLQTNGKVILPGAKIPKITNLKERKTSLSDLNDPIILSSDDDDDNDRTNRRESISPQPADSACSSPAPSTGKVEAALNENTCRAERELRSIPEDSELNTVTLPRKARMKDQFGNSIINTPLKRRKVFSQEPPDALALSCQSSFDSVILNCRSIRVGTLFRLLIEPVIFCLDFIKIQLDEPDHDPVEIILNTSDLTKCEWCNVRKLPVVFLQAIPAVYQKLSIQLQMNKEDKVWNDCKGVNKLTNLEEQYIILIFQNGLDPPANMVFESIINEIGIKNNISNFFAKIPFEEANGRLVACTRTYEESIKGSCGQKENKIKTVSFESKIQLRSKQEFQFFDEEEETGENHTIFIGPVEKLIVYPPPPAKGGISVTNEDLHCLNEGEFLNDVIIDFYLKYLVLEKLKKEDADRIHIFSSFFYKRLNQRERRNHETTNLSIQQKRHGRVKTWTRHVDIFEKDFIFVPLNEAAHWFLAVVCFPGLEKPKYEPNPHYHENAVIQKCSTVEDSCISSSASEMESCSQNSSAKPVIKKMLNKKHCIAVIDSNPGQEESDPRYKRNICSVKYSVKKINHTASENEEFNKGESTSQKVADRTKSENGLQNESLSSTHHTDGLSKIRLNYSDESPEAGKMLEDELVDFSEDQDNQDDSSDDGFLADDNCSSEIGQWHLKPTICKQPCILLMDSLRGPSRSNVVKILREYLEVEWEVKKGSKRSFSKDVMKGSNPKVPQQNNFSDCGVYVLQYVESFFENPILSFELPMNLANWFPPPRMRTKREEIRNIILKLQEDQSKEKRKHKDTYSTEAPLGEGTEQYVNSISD

Test [5] has as its target T4, Sentrin-specific protease 8 (Homo sapiens, UniProt Q96LD8).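 Further: luminescence read-out of SENP8 inhibition, dose-response confirmation following an ultra-high-throughput screen.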
T4 sequence (Q96LD8 whole entry): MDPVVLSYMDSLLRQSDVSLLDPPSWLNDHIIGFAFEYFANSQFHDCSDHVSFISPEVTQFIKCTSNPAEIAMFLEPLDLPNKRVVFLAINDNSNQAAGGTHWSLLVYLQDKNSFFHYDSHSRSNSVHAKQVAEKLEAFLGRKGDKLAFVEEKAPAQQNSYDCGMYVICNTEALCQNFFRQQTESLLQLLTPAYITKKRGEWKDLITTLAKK

The subject of a further test is HeLa. Description: ATP-based viability loss in HeLa cells – cell-based, CellTiter-Glo luminescence, cherry-pick samples, cytotoxicity control for MITF activator project, dose response (AID 540259). The note with it: Homo sapiens. In general terms: In ATP-based viability assays light output follows the ATP content of the culture.
A further test addresses Beta-galactosidase (Escherichia coli, UniProt Q8VNN2). Description: PubChem AID 485352.
Test [6] addresses T5, Type-1 angiotensin II receptor (Homo sapiens, UniProt P30556).
T5 sequence (P30556 whole entry): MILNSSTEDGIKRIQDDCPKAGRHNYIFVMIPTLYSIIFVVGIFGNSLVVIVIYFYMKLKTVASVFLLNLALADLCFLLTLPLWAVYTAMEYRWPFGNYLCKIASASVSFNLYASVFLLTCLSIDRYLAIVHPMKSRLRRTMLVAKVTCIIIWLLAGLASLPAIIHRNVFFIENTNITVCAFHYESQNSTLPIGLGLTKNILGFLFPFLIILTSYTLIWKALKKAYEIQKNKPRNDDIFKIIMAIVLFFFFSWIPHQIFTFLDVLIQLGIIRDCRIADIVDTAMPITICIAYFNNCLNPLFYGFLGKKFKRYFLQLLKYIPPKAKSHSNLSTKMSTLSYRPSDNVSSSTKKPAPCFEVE
Description: antagonism of angiotensin II type 1 receptor – cell-based, uHTS hits, selectivity assay for APJ receptor antagonist project, dose response (AID 463214).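 Further: antagonist potency against angiotensin II stimulated AT1 response.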

Chain of Beta-galactosidase (Q8VNN2 whole entry): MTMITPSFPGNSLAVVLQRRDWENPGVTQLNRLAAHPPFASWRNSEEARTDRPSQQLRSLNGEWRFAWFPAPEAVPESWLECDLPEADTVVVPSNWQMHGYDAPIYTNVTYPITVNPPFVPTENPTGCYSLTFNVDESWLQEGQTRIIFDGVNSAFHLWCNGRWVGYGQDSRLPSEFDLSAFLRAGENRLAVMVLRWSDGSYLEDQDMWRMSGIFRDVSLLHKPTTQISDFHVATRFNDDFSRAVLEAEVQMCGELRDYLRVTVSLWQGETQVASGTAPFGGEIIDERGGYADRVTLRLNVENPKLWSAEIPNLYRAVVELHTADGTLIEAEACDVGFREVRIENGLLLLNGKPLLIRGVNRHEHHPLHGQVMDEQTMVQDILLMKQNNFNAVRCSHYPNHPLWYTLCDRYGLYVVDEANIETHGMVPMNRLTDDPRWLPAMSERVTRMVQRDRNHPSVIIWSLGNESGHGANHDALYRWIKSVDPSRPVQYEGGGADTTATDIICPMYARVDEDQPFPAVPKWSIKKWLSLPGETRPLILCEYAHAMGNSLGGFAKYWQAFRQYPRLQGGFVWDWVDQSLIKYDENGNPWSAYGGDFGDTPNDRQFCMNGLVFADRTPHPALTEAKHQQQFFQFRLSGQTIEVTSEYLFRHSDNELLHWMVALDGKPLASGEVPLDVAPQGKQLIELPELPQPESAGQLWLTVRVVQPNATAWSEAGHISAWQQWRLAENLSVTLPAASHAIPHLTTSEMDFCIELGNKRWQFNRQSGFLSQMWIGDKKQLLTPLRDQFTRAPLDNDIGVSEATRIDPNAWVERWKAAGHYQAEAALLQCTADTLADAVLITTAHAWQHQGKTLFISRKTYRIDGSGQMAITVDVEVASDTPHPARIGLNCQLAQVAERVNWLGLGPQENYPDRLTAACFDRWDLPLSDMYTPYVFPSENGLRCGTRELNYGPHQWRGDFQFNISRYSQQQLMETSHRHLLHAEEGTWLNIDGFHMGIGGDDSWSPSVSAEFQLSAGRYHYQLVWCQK
Chain of 26S proteasome non-ATPase regulatory subunit 14 (O00487 whole entry): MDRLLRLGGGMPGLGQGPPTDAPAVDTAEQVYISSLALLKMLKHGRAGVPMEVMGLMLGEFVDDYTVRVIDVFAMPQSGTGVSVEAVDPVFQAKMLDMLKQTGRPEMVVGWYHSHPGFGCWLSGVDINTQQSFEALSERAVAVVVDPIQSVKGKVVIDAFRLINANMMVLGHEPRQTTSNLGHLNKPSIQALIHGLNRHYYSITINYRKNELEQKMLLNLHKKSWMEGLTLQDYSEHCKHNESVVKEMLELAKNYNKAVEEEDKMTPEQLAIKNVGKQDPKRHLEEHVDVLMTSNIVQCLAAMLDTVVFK

What is called IC50 is the concentration that gives 50% inhibition. Take `O=C(O)CCCCN1C(=O)/C(=C\c2ccc(OCc3ccccc3)c(OCc3ccccc3)c2)SC1=S`: the IC50 in test [1] was 45.4 µM (active); in test [2], > 100 µM (inactive); on Prothrombin, 29.3 µM (active).

By AC50 is commonly meant the concentration at which the activity in the assay is half-maximal. For the compound `Fc1ccccc1CSc1nnc(-c2ccccc2)o1`, the IC50 on Caspase-3 is 32 µM (active); in test [3] it was 12 µM (active); in [4] it was 36.1 µM (active); in [5] it was 53 µM (active). In the test with HeLa, the AC50 is 74 µM (active).

For orientation: EC50 means the midpoint of the concentration-response curve. `NNc1nc(-c2ccccc2)cc(-c2ccc(Br)cc2)n1`: on Beta-galactosidase, the EC50 is > 40 µM (inactive). In test [6], the IC50 is 2.09 µM (active).
